Bridge positions count the residues as written; N and C are the ends. Square brackets hold non-standard residues; d marks the D form. Peptide text beside a SMILES is read from it. * marks the point of attachment. Ileψ(thiazoline)Cys = CC[C@H](C)[C@H](N)C1=N[C@H](C(=O)*)CS1; dOrn = NCCC[C@@H](N)C(=O)O
How the values were obtained:
broiler chickens [1] = experiment: Broiler chicken growth and feed conversion experiment (Example 2, without microbiome seed chickens); format: in vivo, chickens (male Cobb×Cobb); conditions: for growth rate (percent body weight gain) / increased growth over the 236.2% rate of untreated control chickens: day 15 to 32; for feed conversion relative to untreated control chickens: no microbiome seed chickens
Experimental: The objective of the experiment was to compare the effect of 1) a low dose of 0.1 mg mifamurtide/kg feed; and 2) an intermediate dose of 0.57 mg romurtide/kg feed, a different MDP analog, to 50 mg bacitracin/kg feed and non-supplemented feed (untreated control chickens). Both the effect on feed conversion and on growth rates, i. e. the dual criteria for growth promotion, were examined.
Two-hundred day-of-hatch male Cobb×Cobb chickens were randomly assigned at 50 each to one of four groups: no feed supplementation; bacitracin at 50 mg/kg of feed; mifamurtide at 0.1 mg/kg of feed; or romurtide at 0.57 mg/kg of feed. Microbiome seed chickens were not used, and individual body weights of all birds were recorded on days 15 and 32. All other experimental parameters followed Example 1.

broiler chickens [2] = experiment: Broiler chicken feed conversion experiment (Example 1, with microbiome seed chickens); format: in vivo, chickens (male Ross×Ross); conditions: for feed conversion (total consumed feed / total weight gain): days 0 through day 32
Experimental: The primary objective of this experiment was to evaluate if supplementation of feed with mifamurtide at 1.9 mg/kg feed improves feed conversion in broiler chickens, i.e., if broiler chickens require less feed for the same amount of gain in body weight. A secondary objective was to evaluate whether any such improvement compares favorably or unfavorably to improvement seen with bacitracin, an industry standard AGP. A third objective was to evaluate if fast versus slow acquisition of a healthy microbial flora (microbiome) by the experimental chickens influenced feed conversion. A fourth objective was to determine whether feed supplementation with bacitracin, a commonly used industry-standard antibiotic growth promoter, interacted with a potential influence of microbiome acquisition kinetics on feed conversion.
Two hundred day-of-hatch male Ross×Ross chicks were randomly assigned at 50 each to one of four groups: 1 negative control without microbiome seed chickens; 2 negative control with microbiome seed chickens; 3 bacitracin at 50 mg/kg of feed with microbiome seed chickens; or 4 mifamurtide at 1.9 mg/kg of feed with microbiome seed chickens. The mifamurtide was first mixed with 20 g Lactose (Lactochem Fine Powder, DFE Pharma, Germany), then mixed with corn meal to produce a 2% supplement to prepare the feed, which was fed to the birds ad libitum.
The microbiome seed chickens were healthy 21-day-old birds that had been raised on litter of fresh unused pine shavings, and had not been in contact with any other chickens, and thus had microbiomes characteristic of healthy grown birds. At start of the experiment, groups 2-4 of 50 study chicks were exposed to 10 microbiome seed chickens, which were removed on day 5 and were not counted in study results. The objective of the microbiome seed chickens was to rapidly induce a healthy microbiome in the freshly hatched experimental chickens. In contrast, the development of a normal healthy microbiome required more time in the control group without exposure to microbiome seed chickens.
All chicks were reared with a normal broiler starter in mash form, supplemented with amprolium at 113.5 mg/kg. Each group was raised in 5×10 feet floor pens at a stocking density of 1.0 square foot per bird on fresh pine shavings, in a solid-sided barn, with concrete floors, and under ambient humidity. Feed and water were available ad libitum throughout the trial. Thermostatically controlled gas heaters were the primary heat source for the barn, if needed. One heat lamp per pen provided supplemental heat during brooding. Fans were used to cool birds. […] Individual body weights of all birds were recorded on days 8, 21, and 32. […]
The overall (true) feed conversion for each group was determined by dividing total consumed feed by total weight gains of all chickens of the group. […] Calculated feed consumed by birds that died before termination of the experiment was subtracted from total weighed feed. Body weight gain and calculated feed consumption data were analyzed by one-way ANOVA and Tukey Honest True Difference correction for multiple comparisons, and graphs show means±95% confidence intervals. For determination of feed conversion of individual birds, calculated total feed consumption per bird was divided by total weight gain of the bird. […] Group differences in feed conversion were evaluated by non-parametric Mann Whitney U test, and error bars indicate 25-75 percentiles of calculated feed conversions of individual birds. […]

pigs = experiment: Pig feed conversion experiment (Example 3); format: in vivo; conditions: for feed conversion (total consumed feed / total weight gain): day 0 through day 26
Experimental: The objective of the experiment for Example 3 was to evaluate if MDP analogs promote growth in mammals as they do in birds. Pigs were selected as an animal model for the mammalian study. This experiment was designed to contrast the effect of a low dose of 0.1 mg mifamurtide/kg feed on growth and feed conversion to untreated control pigs and to pigs treated with 50 mg carbadox/kg feed, an industry-standard AGP used in pigs.
Pigs were weaned at 3-4 weeks of age and allotted based on weight and gender to one of 15 nursery pens with 6 pigs per pen (90 total pigs). Sex of the pigs was balanced within pens in a weight block. Dietary treatments were randomly assigned within weight blocks to pens of pigs. Three dietary treatments were administered in the phase 1 and 2 diets. Phase 1 diets were fed from day 0-14 post-weaning. On day 14 post-weaning, pigs were switched to phase 2 diets, which were fed until day […]. Treatment 1 was the untreated negative control diet without any growth-promoting supplement. […] Feed intake was monitored for each pen and weigh period. […]
The overall (true) feed conversion for each group was determined by dividing total consumed feed by total weight gains of all pigs of each treatment. […] Body weight gain and calculated feed consumption data were analyzed by one-way ANOVA and Tukey Honest True Difference correction for multiple comparisons. For determination of feed conversion of individual pigs, calculated total feed consumption of each pig was divided by total measured weight gain of the pig. […] Group differences in feed conversion were evaluated by non-parametric Mann Whitney U test.
Individual daily feed consumption per pig was computed by a mathematical model from individual body weights determined over the course of the 26-day experiment, and from total weighed feed consumed by each pen. […] The model first linearly interpolates body weights between the actual measured body weights of the pigs. Based on the calculated daily body weight, the daily feed consumption is then calculated as 4% of body weight. […]

In the case of `CC[C@H](C)[C@H](N)C1=N[C@H](C(=O)N[C@@H](CC(C)C)C(=O)N[C@H](CCC(=O)O)C(=O)N[C@H](C(=O)N[C@H]2CCCCNC(=O)[C@H](CC(N)=O)NC(=O)[C@@H](CC(=O)O)NC(=O)[C@H](Cc3cnc[nH]3)NC(=O)[C@@H](Cc3ccccc3)NC(=O)[C@H]([C@@H](C)CC)NC(=O)[C@@H](CCCN)NC2=O)[C@@H](C)CC)CS1` [bacitracin] ({Ileψ(thiazoline)Cys}-L[dE]IK[dOrn]I[dF]H[dD]N; lactam 4-C), the “body weights on days 15 and 32, body weight gains and feed intake versus the three other treatments” value (broiler chickens [1]; bacitracin at 50 mg/kg feed) is reported as “significantly lower”, the “feed conversion rates versus the three other treatments” value (broiler chickens [1]; bacitracin at 50 mg/kg feed) is reported as “higher feed conversion rates” and the “effect on growth and feed conversion” value (broiler chickens [1]; bacitracin at 50 mg/kg feed, optimal husbandry, absence of a pathogenic microflora) is reported as “profoundly negative effect”. For the same compound, the “improvement in feed conversion over non-microbiome seeded untreated chickens” value (broiler chickens [2]; 50 mg/kg bacitracin treated, microbiome-seeded chickens) was 15.6%, the “more feed required than mifamurtide supplementation (1.9 mg/kg feed) for the same amount of weight gain” value (broiler chickens [2]; bacitracin at 50 mg/kg feed, with microbiome seed chickens, days 0-32) was 13.6% and the “feed conversion (total consumed feed / total weight gain)” value (broiler chickens [2]; bacitracin at 50 mg/kg feed, with microbiome seed chickens) was 1.823.

mifamurtide was tested, and the “growth rate (percent body weight gain)” value (broiler chickens [1]; mifamurtide at 0.1 mg/kg feed) was 259.5%, the “increased growth over the 236.2% rate of untreated control chickens” value (broiler chickens [1]; mifamurtide at 0.1 mg/kg feed) was 9.9% and the “feed conversion relative to untreated control chickens” value (broiler chickens [1]; mifamurtide at 0.1 mg/kg feed, optimal husbandry) was “did not decrease feed conversion”. For the same compound, the “feed conversion (total consumed feed / total weight gain)” value (pigs; 0.1 mg mifamurtide/kg feed, weaned pigs) was 1.476, the “feed conversion (total consumed feed / total weight gain)” value (broiler chickens [2]; 1.9 mg mifamurtide/kg feed, with microbiome seed chickens) was 1.605 g feed/g body weight gain and the “total feed consumed per chicken versus negative controls” value (broiler chickens [2]; mifamurtide 1.9 mg/kg feed, day 0 through day 32 (FIG. 1B)) was “consumed less feed”.

In the case of `CCCCCCCCCCCCCCCCCC(=O)NCCCC[C@H](NC(=O)CC[C@@H](NC(=O)[C@H](C)NC(=O)[C@@H](C)O[C@H]1[C@H](O)[C@@H](CO)OC(O)[C@@H]1NC(C)=O)C(N)=O)C(=O)O` (some centres unmarked) [romurtide], the “growth rate (percent body weight gain)” value (broiler chickens [1]; romurtide at 0.57 mg/kg feed) is reported as 267.4%, the “increased growth over the 236.2% rate of untreated control chickens” value (broiler chickens [1]; romurtide at 0.57 mg/kg feed) is reported as 13.2% and the “feed conversion relative to untreated control chickens” value (broiler chickens [1]; romurtide at 0.57 mg/kg feed, optimal husbandry) is reported as “did not decrease feed conversion”.

`COC(=O)N/N=C/c1c[n+]([O-])c2ccccc2[n+]1[O-]` [carbadox] was tested, and the “more feed required for the same amount of weight gain than treatment with 0.1 mg/kg feed mifamurtide” value (pigs; carbadox 50 mg/kg feed until day 14, 25 mg/kg feed after day 14) was 14.6% and the “feed conversion (total consumed feed / total weight gain)” value (pigs; carbadox 50 mg/kg feed until day 14, 25 mg/kg feed after day 14, weaned pigs) was 1.692.

Reference: patent US20190191740A1, “Methods to Promote Growth and Improve Feed Conversion in Animals” (Nutrivert LLC, priority 2016, published 2019)
